From ChEMBL document CHEMBL5120746, “Novel 5-fluorouracil sensitizers for colorectal cancer therapy: Design and synthesis of S1P receptor 2 (S1PR2) antagonists” (Eur J Med Chem, 2022) come the findings set out here.

For experiment [1], the target named is T1, Sphingosine 1-phosphate receptor 2 (Homo sapiens, UniProt O95136). Nature of the experiment: Binding affinity to S1PR2 (unknown origin) by SPR assay.
The test system of experiment [2] is HCT-116. Nature of the experiment: Reversal of 5-FU resistance against 5-FU resistant DPD expressed human HCT-116 cells assessed as reduction in cell viability incubated for 48 hrs in presence of 5-FU by MTT assay. As to conditions: HCT-116, 48 h. The class given is functional, cell-based.
The test system of experiment [3] is SW620/5-FU. The experiment in a line: Reversal of 5-FU resistance against human SW620/5-FU cells assessed as reduction in cell viability incubated for 48 hrs in presence of 5-FU by MTT assay. The class given is functional, cell-based.
The subject of experiment [4] is HCT-116. The experiment in a line: Antitumor activity against DPD expressed human HCT-116 cells xenografted in SPF nude mouse assessed as tumor growth inhibition at 15 mg/kg, iv QD for 20 days and measured every 4 days. The class given is functional. Conditions: HCT-116, 480 h, time 20 day, read-out: TGI.
For experiment [5], the system named is SW620/5-FU. Nature of the experiment: Antitumor activity against human SW620/5-FU cells xenografted in SPF nude mouse assessed as tumor growth inhibition at 15 mg/kg, iv QD for 21 days and measured every 4 days. The class given is functional. Conditions: 504 h, time 21 day, read-out: TGI.
The test system of experiment [6] is SW620/5-FU. The experiment in a line: Antitumor activity against human SW620/5-FU cells xenografted in SPF nude mouse assessed as reduction in tumor weight at 15 mg/kg, iv QD for 21 days. It counts as functional. Also noted: scale not given: the % may be the effect or the level left. Conditions: time 21 day.
Experiment [7] relates to HCT-116. Nature of the experiment: Antiproliferative activity against 5-FU resistant DPD expressed human HCT-116 cells assessed as reduction in cell viability incubated for 48 hrs by MTT assay. It counts as functional, cell-based. As to conditions: HCT-116, 48 h.
Experiment [8] has as its system SW620/5-FU. Nature of the experiment: Antiproliferative activity against human SW620/5-FU cells assessed as reduction in cell viability incubated for 48 hrs by MTT assay. It counts as functional, cell-based.
The target in experiment [9] is T1, Sphingosine 1-phosphate receptor 2. Nature of the experiment: Antagonist activity at S1PR2 in human SW620/5-FU cells assessed as reduction of DPD-catalyzed 5-FU degradation by measuring intracellular 5-FU level at 20 uM measured after 24 hrs by HPLC-UV analysis. The class given is functional, cell-based. As to conditions: filed as antagonist.

T1 sequence (O95136 whole entry): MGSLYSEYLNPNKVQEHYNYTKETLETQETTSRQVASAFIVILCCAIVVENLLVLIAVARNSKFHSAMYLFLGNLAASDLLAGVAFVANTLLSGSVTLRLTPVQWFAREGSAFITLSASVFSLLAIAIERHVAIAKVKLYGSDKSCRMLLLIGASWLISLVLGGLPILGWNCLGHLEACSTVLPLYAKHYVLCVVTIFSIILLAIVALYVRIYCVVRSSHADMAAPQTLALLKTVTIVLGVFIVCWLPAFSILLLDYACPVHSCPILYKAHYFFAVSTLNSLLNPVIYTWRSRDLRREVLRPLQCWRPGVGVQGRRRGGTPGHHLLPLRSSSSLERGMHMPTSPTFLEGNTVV

Compound `Cc1cc(NNC(=O)Nc2cc(Cl)nc(Cl)c2)nc2c1c(C)nn2C` gave a dissociation constant Kd in experiment [1] of 11 µM. Besides, the EC50 with HCT-116 [2] and in the experiment with SW620/5-FU [3] was greater than 100 µM throughout.
On to `O=c1[nH]cc(F)c(=O)[nH]1` [FLUOROURACIL], for which the values for the inhibition in vivo at 15 mg/kg with HCT-116 [4] and in the experiment on SW620/5-FU [5] were 20.3% and 21.2%, respectively. In addition, in the experiment with SW620/5-FU [6], the Activity is on record as 27.23%. In addition, the concentration giving a half-maximal response (EC50) with HCT-116 [7] and in the experiment with SW620/5-FU [8] was greater than 1000 µM in each case.
With `Cc1ccc(NC(=O)NNc2cc(-c3ccc(F)cc3)c3cnn(C)c3n2)cc1Nc1nccc(-c2cccnc2)n1`, the equilibrium dissociation constant (Kd) in experiment [1] came out at 5.96 µM. Also, the EC50 in the experiment on HCT-116 [2] stood at 39.1 µM; with SW620/5-FU [3] it was 33.1 µM.
`CCCOc1cc(NC(=O)NNc2cc(-c3ccc(OC)cc3)c3cnn(C)c3n2)cc(Cl)n1` gave a Kd in experiment [1] of 3.14 µM. For the same compound, the concentration for a half-maximal effect (EC50) was found to be 33.2 µM in the experiment on HCT-116 [2] and 37.2 µM with SW620/5-FU [3].
In the same order, the values of `Cc1nn(C)c2nc(NNC(=O)Nc3cc(Cl)nc(Cl)c3)cc(-c3ccccc3)c12` are 5.32 µM, 80 µM and 22.9 µM.
In the same order, the values of `COc1cc(NC(=O)NNc2cc(-c3ccc(F)cc3)c3cnn(C)c3n2)cc(OC)c1OC` are 4.44 µM, 45.3 µM and 39.2 µM.
In turn, `COc1ccc(-c2cc(NNC(=O)Nc3cc(Br)nc(Br)c3)nc3c2cnn3C)cc1` came in with an equilibrium dissociation constant (Kd) in experiment [1] of 6.32 µM. Moreover, the EC50 with HCT-116 [2] came out at 45.2 µM; in the experiment with SW620/5-FU [3], 54.1 µM.
In the same order, the values of `Cn1nc(C(F)(F)F)c2c(-c3ccccc3)cc(NNC(=O)Nc3cc(Cl)nc(Cl)c3)nc21` are 0.94 µM, 18.1 µM and 13.1 µM.
The like results for `CC(C)c1cc(NNC(=O)Nc2cc(Cl)nc(Cl)c2)nc2c1cnn2C` were, in that order, 0.78 µM, 17.2 µM and 50.1 µM.
The like results for `COc1cc(NC(=O)NNc2cc(-c3ccccc3)c3cnn(C)c3n2)cc(Cl)n1` were, in that order, 3.64 µM, 31.2 µM and 28.7 µM.
With `COc1ccc(-c2cc(NNC(=O)Nc3cc(Cl)nc(OC)c3)nc3c2cnn3C)cc1`, in [1], the dissociation constant Kd turned out to be 1.98 µM. Moreover, the results for the concentration for a half-maximal effect (EC50) in the experiment with HCT-116 [2] and in the experiment on SW620/5-FU [3] were 54.2 µM and 48.8 µM, respectively.
The like results for `Cc1nn(C)c2nc(NNC(=O)Nc3cc(Cl)nc(Cl)c3)cc(-c3ccco3)c12` were, in that order, 6.52 µM, 69.2 µM and greater than 100 µM.
The like results for `CCCc1cc(NNC(=O)Nc2cc(Cl)nc(Cl)c2)nc2c1c(C(F)(F)F)nn2C` were, in that order, 0.89 µM, 38.2 µM and 11.7 µM.
The compound `Cc1c(Cc2ccccc2)c(NNC(=O)Nc2cc(Cl)nc(Cl)c2)nc2c1cnn2C` showed a Kd in experiment [1] of 0.87 µM. Moreover, the EC50 in the experiment with HCT-116 [2] was 13.6 µM; in the experiment on SW620/5-FU [3], 21.4 µM.
In the same order, the values of `CCCCOc1cc(NC(=O)NNc2cc(-c3ccc(OC)cc3)c3cnn(C)c3n2)cc(Cl)n1` are 4.15 µM, 36.5 µM and 39.2 µM.
In the same order, the values of `COc1cc(NC(=O)NNc2cc(-c3ccc(F)cc3)c3cnn(C)c3n2)cc(Cl)n1` are 1.65 µM, 75.3 µM and 24.1 µM.
In the same order, the values of `COc1ccc(-c2cc(NNC(=O)Nc3cc(Cl)nc(OC(C)C)c3)nc3c2cnn3C)cc1` are 2.32 µM, 39.8 µM and 47.1 µM.
`CCCCOc1cc(NC(=O)NNc2cc(-c3ccc(F)cc3)c3cnn(C)c3n2)cc(Cl)n1` gave a Kd in experiment [1] of 2.65 µM. Moreover, the EC50 with HCT-116 [2] came out at 49.4 µM; in the experiment with SW620/5-FU [3] it was 29.3 µM.
The like results for `CC(C)c1cc(NNC(=O)Nc2cc(Cl)nc(Cl)c2)nc2c1c(C(F)(F)F)nn2C` were, in that order, 1.25 µM, 27.2 µM and 19.1 µM.
`Cc1nn(C)c2nc(NNC(=O)Nc3cc(Cl)nc(Cl)c3)cc(C(C)C)c12` returned a Kd in experiment [1] of 1.96 µM. Moreover, the concentration for a half-maximal effect (EC50) in the experiment with HCT-116 [2] is 18.3 µM; with SW620/5-FU [3], 58.6 µM. Further, the Activity in experiment [9] is 1.75 µM.
Compound `CCCc1cc(NNC(=O)Nc2cc(Cl)nc(Cl)c2)nc2c1cnn2C` registered a Kd in experiment [1] of 1.4 µM. The half-maximal effective concentration (EC50) in the experiment with HCT-116 [2] is 76.2 µM; with SW620/5-FU [3] it was 38.7 µM.
`Cn1ncc2c(-c3ccc(F)cc3)cc(NNC(=O)Nc3cc(Cl)nc(OCCF)c3)nc21` registered a Kd in [1] of 2.79 µM. Moreover, the concentration giving a half-maximal response (EC50) in the experiment with HCT-116 [2] turned out to be 37.2 µM; with SW620/5-FU [3] it was 29.3 µM.
The like results for `Cc1nn(C)c2nc(NNC(=O)Nc3cc(Cl)nc(Cl)c3)cc(C3CC3)c12` were, in that order, 3.65 µM, 67.7 µM and 80.8 µM.
In the same order, the values of `Cn1ncc2c(-c3ccc(F)cc3)cc(NNC(=O)Nc3cc(Cl)cc(Cl)c3)nc21` are 4.98 µM, 39.1 µM and 54.3 µM.
The compound `Cn1ncc2c(-c3ccccc3)cc(NNC(=O)Nc3cc(Cl)nc(Cl)c3)nc21` showed a Kd in experiment [1] of 1.02 µM. The half-maximal effective concentration (EC50) is 6.24 µM with HCT-116 [2] and 76.9 µM in the experiment with SW620/5-FU [3].
The like results for `CCCc1cc(NNC(=O)Nc2cc(Cl)nc(Cl)c2)nc2c1c(C)nn2C` were, in that order, 2.36 µM, 72.2 µM and 40.8 µM.
In experiment [1], `CCN(CC)c1cc(NC(=O)NNc2cc(-c3ccc(F)cc3)c3cnn(C)c3n2)cc(Cl)n1` yielded a dissociation constant (Kd) of 3.15 µM. In addition, the EC50 with HCT-116 [2] turned out to be 29.4 µM; with SW620/5-FU [3], 37 µM.
Compound `COc1ccc(-c2cc(NNC(=O)Nc3cc(Cl)nc(Cl)c3)nc3c2c(C)nn3C)cc1` came in with a Kd in experiment [1] of 1.02 µM. The values for the EC50 with HCT-116 [2] and with SW620/5-FU [3] were 82.3 µM and 9.7 µM, respectively.
In the same order, the values of `Cc1nn(C)c2nc(NNC(=O)Nc3cc(Cl)nc(Cl)c3)cc(-c3ccc(F)cc3)c12` are 0.98 µM, 25.2 µM and 17.4 µM.
The like results for `Cn1ncc2c(-c3ccc(F)cc3)cc(NNC(=O)N/C=C/c3cccnc3)nc21` were, in that order, 4.12 µM, 36.2 µM and 49.3 µM.
In the same order, the values of `COc1ccc(-c2cc(NNC(=O)Nc3cc(Cl)nc(Cl)c3)nc3c2cnn3C)cc1` are 0.52 µM, 12.3 µM and 18.4 µM.
As for `Cc1nn(C)c2nc(NNC(=O)Nc3cc(Cl)nc(Cl)c3)cc(-c3ccc(Cl)s3)c12`, binding in experiment [1] was put at a Kd of 1.98 µM. Besides, the half-maximal effective concentration (EC50) with HCT-116 [2] stood at 42.1 µM; in the experiment on SW620/5-FU [3] it was 29.4 µM.
In the same order, the values of `Cn1ncc2c(-c3ccc(F)cc3)cc(NNC(=O)Nc3cc(F)cc(F)c3)nc21` are 3.98 µM, 46.2 µM and 47.4 µM.
The like results for `Cc1nn(C)c2nc(NNC(=O)Nc3cc(Cl)nc(Cl)c3)cc(C3CCCCC3)c12` were, in that order, 2.01 µM, 38 µM and 22 µM.
